Source: PMC8248988, “A signal capture and proofreading mechanism for the KDEL-receptor explains selectivity and dynamic range in ER retrieval” (eLife, 2021)

Molecular target: T1, human KDELR1 E117Q (Homo sapiens, UniProt P24390, E117Q)
T1 construct: expressed in transfected cells; host or cells: COS-7
Assay: ER retrieval assay, KDELR1 E117Q-GFP
Assay type: cell-based
Settings: COS-7 cells
Source text: To create KDELR1-GFP and KDELR2-GFP, the reading frames for Homo sapiens KDELR1 (Uniprot: P24390) and KDELR2 (Uniprot: P33947) were cloned into the pEF5/FRT low level mammalian expression vector with a C-terminal 20 amino acid linker made up of 5 copies of Gly-Ser-Ser-Ser followed by GFP. Specific point mutations were introduced using the Quickchange protocol (Stratagene) and are described in the key resources table and figures. To create the mScarlet-KDEL^sec ligand construct, mScarlet with an N-terminal hGH signal peptide and the 16 C-terminal residues of human BiP at its C-terminus, containing the KDEL signal, was cloned into the pcDNA3.1 vector. […] The Golgi marker protein TGN46 was detected by antibody (sheep anti-TGN46 AHP500G; AbD Serotec) and an Alexa 647 conjugated secondary anti-sheep secondary (A-21448, Invitrogen). In Figure 1d and e, endogenous KDELR was detected by antibody (mouse anti-KDELR ADI-VAA-PT048; Enzo Life Sciences) and Alexa 488 conjugated anti-mouse secondary antibody (A-21202, Invitrogen). For retrieval assays in other figures, KDELR-GFP fusion proteins were directly detected by fluorescence. The mScarlet-xDEL fusion proteins were directly detected by fluorescence. […] The fraction of KDEL receptor in the Golgi apparatus was calculated by dividing the Golgi signal by the total cell signal. […]

T1 sequence (P24390 whole entry E117Q): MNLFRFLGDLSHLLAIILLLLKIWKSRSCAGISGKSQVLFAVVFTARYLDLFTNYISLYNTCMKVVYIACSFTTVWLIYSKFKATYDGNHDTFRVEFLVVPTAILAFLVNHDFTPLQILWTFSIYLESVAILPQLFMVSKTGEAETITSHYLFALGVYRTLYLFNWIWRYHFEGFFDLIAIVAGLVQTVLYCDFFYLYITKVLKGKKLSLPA

ligand-induced receptor retrieval to the ER (in words): move to the ER
Substance: ADEL [pcDNA3.1 hGHss-mScarlet-H. sapiens BiP639-654K651A (ADEL^SEC), secreted mScarlet fusion with human BiP C-terminus, ADEL signal]
